We go through 24 molecules from US20250129104A1, “7H-PYRROLO[2,3-D]PYRIMIDINES AND PREPARATION AND USES THEREOF” (BioSplice Therapeutics, Inc., priority 2021, published 2025).

Structures are written as SMILES.

The EC50 is the concentration giving half of the maximal effect.

Assay [1] concerns Tau phosphorylation at Thr212 (pThr212). Briefly: tau phosphorylation assay: phosphoTau (Thr212) AlphaLISA in HEK293T cells transfected with DYRK1A and MAPT. In kind it is cell-based. To be noted: HEK-293T; HEK293T cells transfected with human DYRK1A and MAPT; 18-24 h compound treatment; read-out: pTau (Thr212) EC50. The protocol:
Representative compounds were screened using the assay procedure for tau phosphorylation activity described below.
HEK293T cells (ATCC, CRL3216) cultured in DMEM (Thermo Fisher Scientific, 10566024) supplemented with 10% FBS (Corning, 35-011-CV) and Penicillin/Streptomycin (Thermo Fisher Scientific, 15140163) were seeded in a 75 cm^2 flask at 8.1×10^6 cells/flask. The HEK293T cells were then transiently transfected with 5 μg DYRK1A (NM_001396) human untagged clone (OriGene, SC314641) and 2.5 μg MAPT (441 a.a. Tau gene) (NM_005910) human untagged clone (OriGene, TP313312) using Lipofectamine 3000 (Thermo Fisher Scientific, L30000015) and incubated for 20-30 hours in a humidified incubator at 37° C. and 5% CO2. Post-incubation, HEK293T cells transfected with the DYRK1A and MAPT expression vectors were harvested and seeded in BioCoat poly-D lysine coated 96-well plates (Corning, 354461) at 3×10^4 cells/well.
The above synthesized compounds were screened using the cell assay procedure to assess decreased Tau phosphorylation at Thr212 (pThr212) described below.
Each compound was dissolved in DMSO (Sigma-Aldrich, D8418-100 mL) as a 10 mM stock. 10 mM stocks were serially diluted 1:3, 10-point dose-response curve and added to the cells with a final concentration ranging from 20 μM to 1.1 nM. Cell were treated with compounds in duplicate and incubated for 18-24 hours in a humidified incubator at 37° C. and 5% CO2.
Following the overnight compound treatment, cells were lysed with 1× Alpha Surefire Ultra Lysis Buffer (Perkin Elmer, ALSU-LB-100ML) complemented with 1× Halt Phosphatase Inhibitor Cocktail (Thermo Fisher Scientific, 78427) and 1× Halt Protease Inhibitor Cocktail (Thermo Fisher Scientific, 78438). Lysates were spun down at 12,000 g for 10 min to remove any cellular debris and 5 μL of lysates were dispensed into a 384-well Opti-Plate (Perkin Elmer, 6007290) for the measurement of Tau phosphorylation in the phosphoTau (Thr212) AlphaLISA assay. Donor antibody, biotinylated HT7Tau (Thermo Fisher Scientific, MN1000B), and acceptor antibody, pThr212Tau (Thermo Fisher Scientific, 44740G) were both added to the cell lysates at a final concentration of 3 nM and incubated for 1 hour at room temperature. Following incubation of the lysates with the donor and acceptor antibodies, anti-rabbit IgG (Fc specific) AlphaLISA acceptor beads (Perkin Elmer, AL104C) were added at a 10 μg/mL final concentration and incubated for 1 hour at room temperature protected from light. Lastly, AlphaScreen streptavidin donor beads (PerkinElmer, 6760002) were added at 40 μg/mL final concentration and incubated for 1 hour at room temperature protected from light. Plates were read at […], and Em=615 nm on the EnVision Multilabel Plate Reader (Perkin Elmer). PhosphoTau (Thr212) AlphaLISA signal was used to plot, draw the curve fitting, and determine each compound's EC50 in Prism (GraphPad).
In general terms: Alpha assays give light when donor and acceptor beads are brought close together.

The target of assay [2] is recombinant DYRK1A kinase (Homo sapiens (Human), UniProt Q13627). The experiment in a line: DYRK1A kinase assay (Ser/Thr 18 peptide Z-lyte FRET assay). To be noted: DYRK1A kinase activity; 15 μM ATP, 1 h room temperature; method text calls the value IC50. In kind it is biochemical. An outline of the steps: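 FRET Z-lyte read-out (coumarin/fluorescein ratio, % phosphorylation) after 1 h development; IC50 from non-linear curve fit. Reaction: 0.25 μg/mL recombinant human DYRK1A, Ser/Thr 18 peptide 4 μM, ATP 15 μM, compound in 11-point 1:3 series from 10 μM, 1 h, room temperature, duplicate wells.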

In the case of `CC[C@H](C)Nc1ncc2c(-c3ccc4ncc(F)n4c3)c[nH]c2n1` [Compound 154, (S)—N-(sec-Butyl)-5-(3-fluoroimidazo[1,2-a]pyridin-6-yl)-7H-pyrrolo[2,3-d]pyrimidin-2-amine], the EC50 was 476 nM in assay [1] and 25.9 nM in assay [2].
Take `CC(C)(F)CNc1ncc2c(-c3ccc4ncc(F)n4c3)c[nH]c2n1` [Compound 155, N-(2-Fluoro-2-methylpropyl)-5-(3-fluoroimidazo[1,2-a]pyridin-6-yl)-7H-pyrrolo[2,3-d]pyrimidin-2-amine]: the EC50 in assay [1] stood at 227 nM; in assay [2] it was 11.7 nM.
For the molecule `COC[C@H](C)Nc1ncc2c(-c3ccc4ncc(F)n4c3)c[nH]c2n1` [Compound 161, (S)-5-(3-Fluoroimidazo[1,2-a]pyridin-6-yl)-N-(1-methoxypropan-2-yl)-7H-pyrrolo[2,3-d]pyrimidin-2-amine], the EC50 in assay [1] came out at 361 nM; in assay [2], 26.5 nM.
As to `COc1nc(CC(C)C)nc2[nH]cc(-c3cc(F)c4nccn4c3)c12` [Compound 187, 5-(8-Fluoroimidazo[1,2-a]pyridin-6-yl)-2-isobutyl-4-methoxy-7H-pyrrolo [2,3-d]pyrimidine], the EC50 in assay [1] worked out at 765 nM; in assay [2], 20.3 nM.
Turning to `Fc1cc(-c2c[nH]c3nc(C4CC4)ncc23)cn2ccnc12` [Compound 189, 2-Cyclopropyl-5-(8-fluoroimidazo[1,2-a]pyridin-6-yl)-7H-pyrrolo[2,3-d]pyrimidine], the figures for the EC50 in assay [1] and in assay [2] were 1660 nM and 24.2 nM, respectively.
In the case of `CC[C@H](C)Nc1ncc2c(-c3cc(F)c4nccn4c3)c[nH]c2n1` [Compound 198, (S)—N-(sec-Butyl)-5-(8-fluoroimidazo[1,2-a]pyridin-6-yl)-7H-pyrrolo[2,3-d]pyrimidin-2-amine], the half-maximal effective concentration (EC50) worked out at 351 nM in assay [1] and 19.5 nM in assay [2].
`CC(C)(F)CNc1ncc2c(-c3cc(F)c4nccn4c3)c[nH]c2n1` [Compound 199, N-(2-Fluoro-2-methylpropyl)-5-(8-fluoroimidazo[1,2-a]pyridin-6-yl)-7H-pyrrolo[2,3-d]pyrimidin-2-amine]: the EC50 in assay [1] was found to be 49 nM; in assay [2], 15.5 nM.
Taken in the same sequence, the figures for `C[C@@H](Nc1ncc2c(-c3cc(F)c4nccn4c3)c[nH]c2n1)C(F)(F)F` [Compound 202, (R)-5-(8-Fluoroimidazo[1,2-a]pyridin-6-yl)-N-(1,1,1-trifluoropropan-2-yl)-7H-pyrrolo[2,3-d]pyrimidin-2-amine] were 76 nM and 6 nM.
Taken in the same sequence, the figures for `COC[C@H](C)Nc1ncc2c(-c3cc(F)c4nccn4c3)c[nH]c2n1` [Compound 205, (S)-5-(8-Fluoroimidazo[1,2-a]pyridin-6-yl)-N-(1-methoxypropan-2-yl)-7H-pyrrolo[2,3-d]pyrimidin-2-amine] were 124 nM and 5.2 nM.
For `Fc1cc(-c2c[nH]c3nc(NCC4(F)CC4)ncc23)cn2ccnc12` [Compound 208, N-((1-Fluorocyclopropyl)methyl)-5-(8-fluoroimidazo[1,2-a]pyridin-6-yl)-7H-pyrrolo[2,3-d]pyrimidin-2-amine], the values for the EC50 in assay [1] and in assay [2] were 30 nM and 7.1 nM, respectively.
Regarding `Cc1cnc2c(F)cc(-c3c[nH]c4nc(C5CC5)ncc34)cn12` [Compound 276, 2-Cyclopropyl-5-(8-fluoro-3-methylimidazo[1,2-a]pyridin-6-yl)-7H-pyrrolo [2,3-d]pyrimidine], the EC50 in assay [1] is 657 nM; in assay [2], 28.4 nM.
With `CC[C@H](C)Nc1ncc2c(-c3cc(F)c4ncc(C)n4c3)c[nH]c2n1` [Compound 285, (S)—N-(sec-Butyl)-5-(8-fluoro-3-methylimidazo[1,2-a]pyridin-6-yl)-7H-pyrrolo[2,3-d]pyrimidin-2-amine], the EC50 in assay [1] came to 241 nM; in assay [2], 12.7 nM.
As for `COC[C@H](C)Nc1ncc2c(-c3cc(F)c4ncc(C)n4c3)c[nH]c2n1` [Compound 292, (S)-5-(8-Fluoro-3-methylimidazo[1,2-a]pyridin-6-yl)-N-(1-methoxypropan-2-yl)-7H-pyrrolo[2,3-d]pyrimidin-2-amine], the EC50 in assay [1] turned out to be 509 nM; in assay [2], 17 nM.
Take `Cc1cnc2c(F)cc(-c3c[nH]c4nc(NC5CCC(F)(F)CC5)ncc34)cn12` [Compound 301, N-(4,4-Difluorocyclohexyl)-5-(8-fluoro-3-methylimidazo[1,2-a]pyridin-6-yl)-7H-pyrrolo[2,3-d]pyrimidin-2-amine]: the concentration for a half-maximal effect (EC50) turned out to be 66 nM in assay [1] and 6.6 nM in assay [2].
As to `CC(C)(F)CNc1ncc2c(-c3ccc4ncc(C(F)F)n4c3)c[nH]c2n1` [Compound 329, 5-(3-(difluoromethyl)imidazo[1,2-a]pyridin-6-yl)-N-(2-fluoro-2-methylpropyl)-7H-pyrrolo[2,3-d]pyrimidin-2-amine], the EC50 in assay [1] came to 211 nM; in assay [2] it was 6.8 nM.
Regarding `O=C(NCC(F)F)c1cnc2ccc(-c3c[nH]c4nc(C5CC5)ncc34)cn12` [Compound 407, 6-(2-Cyclopropyl-7H-pyrrolo[2,3-d]pyrimidin-5-yl)-N-(2,2-difluoroethyl) imidazo[1,2-a]pyridine-3-carboxamide], the EC50 in assay [1] was 11 nM; in assay [2], 1.2 nM.
For `CC(C)Cc1ncc2c(-c3cnc4nccn4c3)c[nH]c2n1` [Compound 448, 5-(Imidazo[1,2-a]pyrimidin-6-yl)-2-isobutyl-7H-pyrrolo[2,3-d]pyrimidine], the EC50 came to 245 nM in assay [1] and 9.3 nM in assay [2].
For the molecule `FC(F)(F)CCc1ncc2c(-c3cnc4nccn4c3)c[nH]c2n1` [Compound 449, 5-(Imidazo[1,2-a]pyrimidin-6-yl)-2-(3,3,3-trifluoropropyl)-7H-pyrrolo[2,3-d]pyrimidine], the EC50 amounted to 497 nM in assay [1] and 9.4 nM in assay [2].
As to `c1cn2cc(-c3c[nH]c4nc(C5CC5)ncc34)cnc2n1` [Compound 450, 2-Cyclopropyl-5-(imidazo[1,2-a]pyrimidin-6-yl)-7H-pyrrolo[2,3-d]pyrimidine], the EC50 in assay [1] amounted to 980 nM; in assay [2], 16.1 nM.
Taken in the same sequence, the figures for `c1cn2cc(-c3c[nH]c4nc(CC5CCC5)ncc34)cnc2n1` [Compound 452, 2-(Cyclobutylmethyl)-5-(imidazo[1,2-a]pyrimidin-6-yl)-7H-pyrrolo[2,3-d]pyrimidine] were 1220 nM and 20.2 nM.
Taken in the same sequence, the figures for `CC(C)(F)CNc1ncc2c(-c3cnc4nccn4c3)c[nH]c2n1` [Compound 460, N-(2-Fluoro-2-methylpropyl)-5-(imidazo[1,2-a]pyrimidin-6-yl)-7H-pyrrolo [2,3-d]pyrimidin-2-amine] were 57 nM and 1.5 nM.
As to `C[C@@H](Nc1ncc2c(-c3cnc4nccn4c3)c[nH]c2n1)C1CC1` [Compound 469, (R)—N-(1-cyclopropylethyl)-5-(imidazo[1,2-a]pyrimidin-6-yl)-7H-pyrrolo [2,3-d]pyrimidin-2-amine], the 50% effective concentration (EC50) in assay [1] turned out to be 246 nM; in assay [2], 7.6 nM.
For `COc1nc(CC(C)C)nc2[nH]cc(-c3cc(F)c4nc(C)n(C(C)C)c4c3)c12` [Compound 497, 5-(4-Fluoro-1-isopropyl-2-methyl-1H-benzo[d]imidazol-6-yl)-2-isobutyl-4-methoxy-7H-pyrrolo[2,3-d]pyrimidine], the results for the half-maximal effective concentration (EC50) in assay [1] and in assay [2] were 433 nM and 9.2 nM, respectively.
In the case of `Cc1nc2c(F)cc(-c3c[nH]c4nc(C5CC5)ncc34)cc2n1C(C)C` [Compound 499, 2-Cyclopropyl-5-(4-fluoro-1-isopropyl-2-methyl-1H-benzo[d]imidazol-6-yl)-7H-pyrrolo[2,3-d]pyrimidine], the EC50 in assay [1] is 296 nM; in assay [2] it was 6 nM.
